The first assay addresses T1, Recombinant human HSD17B13 enzyme (Homo sapiens, UniProt Q7Z5P4).
T1 sequence (Q7Z5P4 20-300): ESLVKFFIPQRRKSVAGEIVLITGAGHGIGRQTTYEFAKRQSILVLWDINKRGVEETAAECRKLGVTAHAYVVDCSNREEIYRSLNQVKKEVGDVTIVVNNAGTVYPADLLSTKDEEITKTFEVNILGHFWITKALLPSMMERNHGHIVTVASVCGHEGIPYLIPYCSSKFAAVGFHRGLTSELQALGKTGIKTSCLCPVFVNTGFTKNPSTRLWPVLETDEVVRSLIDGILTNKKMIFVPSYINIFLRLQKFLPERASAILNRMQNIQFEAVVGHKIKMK
Kind of assay: HSD17b13 NAD(P)H-Glo biochemical assay. The note with it: 50 uM estradiol, 1 mM NAD+, NAD(P)H-Glo luminescence; read-out: HSD17β13 IC50. The protocol:
Example B-1: HSD17b13 NAD(P)H-Glo Biochemical Assay
Recombinant human HSD17B13 enzyme. Substrate: estradiol (Sigma β-Estradiol E8875), 100 mM in DMSO. Cofactor: NAD+ Grade I free acid (Sigma 10127965001), 20 mM in H2O. Assay buffer final concentration: 20 mM Tris pH7.4 with 0.002% Tween-20 and 0.02% BSA. Assay performed in 384 well solid bottom plate (Corning 3570). Enzymatic activity detected by NAD(P)H-Glo™ Detection System (Promega G9062).
Inhibitor compounds were serially diluted in DMSO and then further diluted in assay buffer to a 10× concentration consisting of 1% DMSO.
HSD17b13 enzyme was diluted in 1× assay buffer to the desired enzyme concentration based on the specific activity of the enzyme lot. 20 uL of diluted enzyme was added to each well along with 2.5 uL of 10× inhibitor solution. Assay plate was incubated at RT for 20 minutes, and then 2.5 uL of a 10× substrate/cofactor mix was added to each well for a final concentration of 50 uM estradiol and 1 mM NAD+. Assay plate was incubated at 37° C. for 3 hours. NAD(P)H-Glo™ Detection System reagents were prepared according to manufacturer's specifications, and 25 uL was added to each well. After incubating for 1 hour at RT, luminescence was measured.
For the compound `CS(=O)(=O)N1CCN(c2ccc3oc(-c4ccc(F)c(O)c4)nc3c2)CC1` [Compound 4, 2-Fluoro-5-(5-(4-(methylsulfonyl)piperazin-1-yl)benzo[d]oxazol-2-yl)phenol], the 50% inhibitory concentration (IC50) lay within 100 to 1000 nM.
Regarding `CS(=O)(=O)N1CCN(c2ccc3nc(-c4cc(O)cc(C(F)(F)F)c4)oc3c2)CC1` [Compound 4.01, 3-(6-(4-(Methylsulfonyl)piperazin-1-yl)benzo[d]oxazol-2-yl)-5-(trifluoromethyl)phenol], the half-inhibitory concentration (IC50) was 100 to 1000 nM.
In the case of `CS(=O)(=O)N1CCN(c2ccc3oc(-c4cc(O)cc(C(F)(F)F)c4)nc3c2)CC1` [Compound 4.02, 3-(5-(4-(Methylsulfonyl)piperazin-1-yl)benzo[d]oxazol-2-yl)-5-(trifluoromethyl)phenol], the concentration for half-maximal inhibition (IC50) is 100 to 1000 nM.
On to `CS(=O)(=O)N1CCN(c2cc3nc(-c4cc(O)c(F)c(F)c4)oc3cc2Cl)CC1` [Compound 5, 5-(6-Chloro-5-(4-(methylsulfonyl)piperazin-1-yl)benzo[d]oxazol-2-yl)-2,3-difluorophenol], for which the 50% inhibitory concentration (IC50) fell in the range of 100 to 1000 nM.
As for `CS(=O)(=O)C1CN(c2cc3nc(-c4cc(O)c(F)c(F)c4)oc3cc2Cl)C1` [Compound 5.01, 5-(6-Chloro-5-(3-(methylsulfonyl)azetidine-1-yl)benzo[d]oxazol-2-yl)-2,3-difluorophenol], the IC50 was 100 to 1000 nM.
As for `CS(=O)(=O)N1CCN(c2ccc3oc(-c4cc(O)c(F)c(F)c4)nc3c2)CC1` [Compound 5.02, 2,3-Difluoro-5-(5-(4-(methylsulfonyl)piperazin-1-yl)benzo[d]oxazol-2-yl)phenol], the IC50 is 100 to 1000 nM.
`CS(=O)(=O)N1CCN(c2ccc3oc(-c4cc(O)c(F)c(C(F)(F)F)c4)nc3c2)CC1` [Compound 6, 2-Fluoro-5-(5-(4-(methylsulfonyl)piperazin-1-yl)benzo[d]oxazol-2-yl)-3-(trifluoromethyl)phenol]: the half-inhibitory concentration (IC50) was under 100 nM.
The same measure, in the same setting: then `CS(=O)(=O)N1CCN(c2cc3oc(-c4cc(O)c(F)c(C(F)(F)F)c4)nc3cn2)CC1` [Compound 6.01, 2-Fluoro-5-(6-(4-(methylsulfonyl)piperazin-1-yl)oxazolo[4,5-c]pyridin-2-yl)-3-(trifluoromethyl)phenol], with 100 to 1000 nM.
The same measure, in the same setting: under `CS(=O)(=O)N1CCN(c2ccc3nc(-c4cc(O)c(F)c(C(F)(F)F)c4)oc3c2)CC1` [Compound 6.02, 2-Fluoro-5-(6-(4-(methylsulfonyl)piperazin-1-yl)benzo[d]oxazol-2-yl)-3-(trifluoromethyl)phenol] stands under 100 nM; under `CS(=O)(=O)N1CCN(c2ccc3oc(-c4cc(C(F)(F)F)c(F)c(O)c4F)nc3c2)CC1` [Compound 7, 2,6-Difluoro-3-(5-(4-(methylsulfonyl)piperazin-1-yl)benzo[d]oxazol-2-yl)-5-(trifluoromethyl)phenol], 100 to 1000 nM; under `CS(=O)(=O)N1CCN(c2ccc3oc(-c4cc(C(F)(F)F)cc(O)n4)nc3c2)CC1` [Compound 7.01, 6-(5-(4-(Methylsulfonyl)piperazin-1-yl)benzo[d]oxazol-2-yl)-4-(trifluoromethyl)pyridin-2-ol], 1000 to 30000 nM.
Still for that read-out and setting: under `Cn1nc(-c2cc(C(F)(F)F)c(F)c(O)c2F)c2cnc(N3CCOCC34CC4)cc21` [Compound 8, 2,6-Difluoro-3-(1-methyl-6-(7-oxa-4-azaspiro[2.5]octan-4-yl)-1H-pyrazolo[4,3-c]pyridin-3-yl)-5-trifluoromethyl phenol] stands under 100 nM; under `CN(c1cc2c(cn1)c(-c1cc(C(F)(F)F)c(F)c(O)c1F)nn2C)C1CC1` [Compound 9, 3-(6-(Cyclopropyl(methyl)amino)-1-methyl-1H-pyrazolo[4,3-c]pyridin-3-yl)-2,6-difluoro-5-(trifluoromethyl)phenol], under 100 nM; under `Cn1nc(-c2cc(C(F)(F)F)cc(O)c2F)c2cnc(N3CCN(S(C)(=O)=O)CC3)cc21` [Compound 9.01, 2-Fluoro-3-(1-methyl-6-(4-(methylsulfonyl)piperazin-1-yl)-1H-pyrazolo[4,3-c]pyridin-3-yl)-5-(trifluoromethyl)phenol], under 100 nM.
With `Cn1nc(-c2cc(C(F)(F)F)cc(O)c2F)c2ccc(N3CCN(S(C)(=O)=O)CC3)cc21` [Compound 9.02, 2-Fluoro-3-(1-methyl-6-(4-(methylsulfonyl)piperazin-1-yl)-1H-indazol-3-yl)-5-(trifluoromethyl)phenol], the half-inhibitory concentration (IC50) was 1000 to 30000 nM.
As for `Cn1nc(-c2cc(C(F)(F)F)c(F)c(O)c2F)c2ccc(N3CCOCC34CC4)nc21` [Compound 9.03, 2,6-Difluoro-3-(1-methyl-6-(7-oxa-4-azaspiro[2.5]octan-4-yl)-1H-pyrazolo[3,4-b]pyridin-3-yl)-5-(trifluoromethyl)phenol], the concentration for half-maximal inhibition (IC50) is under 100 nM.
Regarding `Cn1nc(-c2cc(C(F)(F)F)c(F)c(O)c2F)c2cnc(N3CC4(CCOCC4)C3)nc21` [Compound 9.04, 2,6-Difluoro-3-(1-methyl-6-(7-oxa-2-azaspiro[3.5]nonan-2-yl)-1H-pyrazolo[3,4-d]pyrimidin-3-yl)-5-(trifluoromethyl)phenol], the IC50 was under 100 nM.
Same read-out and setting: then `Cn1nc(-c2cc(C(F)(F)F)c(F)c(O)c2F)c2cnc(N3CCC3(C)C)nc21` [Compound 9.05, 3-(6-(2,2-Dimethylazetidin-1-yl)-1-methyl-1H-pyrazolo[3,4-d]pyrimidin-3-yl)-2,6-difluoro-5-(trifluoromethyl)phenol], with 100 to 1000 nM.
Turning to `Cn1nc(-c2cc(C(F)(F)F)c(F)c(O)c2F)c2cnc(N3CC(C)(C)C3)nc21` [Compound 9.06, 3-(6-(3,3-Dimethylazetidin-1-yl)-1-methyl-1H-pyrazolo[3,4-d]pyrimidin-3-yl)-2,6-difluoro-5-(trifluoromethyl)phenol], the IC50 is under 100 nM.
The same measure, in the same setting: then `CN(c1cc2c(cn1)c(-c1cc(C(F)(F)F)c(F)c(O)c1F)nn2C)C1CCC1` [Compound 9.07, 3-(6-(Cyclobutyl(methyl)amino)-1-methyl-1H-pyrazolo[4,3-c]pyridin-3-yl)-2,6-difluoro-5-(trifluoromethyl)phenol], with under 100 nM; and `Cn1nc(-c2cc(C(F)(F)F)c(F)c(O)c2F)c2cnc(N3CC(C)(C#N)C3)cc21` [Compound 9.08, 1-(3-(2,4-Difluoro-3-hydroxy-5-(trifluoromethyl)phenyl)-1-methyl-1H-pyrazolo[4,3-c]pyridin-6-yl)-3-methylazetidine-3-carbonitrile], with under 100 nM; and `Cn1nc(-c2cc(C(F)(F)F)c(F)c(O)c2F)c2cnc(N3CC(C)(C#N)C3)nc21` [Compound 9.09, 1-(3-(2,4-Difluoro-3-hydroxy-5-(trifluoromethyl)phenyl)-1-methyl-1H-pyrazolo[3,4-d]pyrimidin-6-yl)-3-methylazetidine-3-carbonitrile], with 100 to 1000 nM.
The same measure, in the same setting: then `Cn1nc(-c2cc(C(F)(F)F)c(F)c(O)c2F)c2cnc(N3CC4(CCOCC4)C3)cc21` [Compound 9.10, 2,6-Difluoro-3-(1-methyl-6-(7-oxa-2-azaspiro[3.5]nonan-2-yl)-1H-pyrazolo[4,3-c]pyridin-3-yl)-5-(trifluoromethyl)phenol], with under 100 nM; and `CN(CC1CC1)c1cc2c(cn1)c(-c1cc(C(F)(F)F)c(F)c(O)c1F)nn2C` [Compound 9.11, 3-(6-((Cyclopropylmethyl) (methyl)amino)-1-methyl-1H-pyrazolo[4,3-c]pyridin-3-yl)-2,6-difluoro-5-(trifluoromethyl)phenol], with under 100 nM; and `Cn1nc(-c2cc(C(F)(F)F)c(F)c(O)c2F)c2cnc(N3CC4(COC4)C3)cc21` [Compound 9.12, 2,6-Difluoro-3-(1-methyl-6-(2-oxa-6-azaspiro[3.3]heptan-6-yl)-1H-pyrazolo[4,3-c]pyridin-3-yl)-5-(trifluoromethyl)phenol], with under 100 nM.
On the same count and under the same terms, then `COC1(C)CN(c2ncc3c(-c4cc(C(F)(F)F)c(F)c(O)c4F)nn(C)c3n2)C1` [Compound 9.13, 2,6-Difluoro-3-(6-(3-methoxy-3-methylazetidin-1-yl)-1-methyl-1H-pyrazolo[3,4-d]pyrimidin-3-yl)-5-(trifluoromethyl)phenol], with under 100 nM.
Take `Cn1nc(-c2cc(C(F)(F)F)c(F)c(O)c2F)c2cnc(NC3CCC3)cc21` [Compound 9.14, 3-(6-(Cyclobutylamino)-1-methyl-1H-pyrazolo[4,3-c]pyridin-3-yl)-2,6-difluoro-5-(trifluoromethyl)phenol]: the IC50 is under 100 nM.

Staying with this assay, now noted: at 10 uM compound; read-out: HSD17β13 % inhibition at 10 uM.
For the compound `CS(=O)(=O)N1CCN(c2ccc3oc(-c4cc(C(F)(F)F)c(F)c(O)n4)nc3c2)CC1` [Compound 7.02, 3-Fluoro-6-(5-(4-(methylsulfonyl)piperazin-1-yl)benzo[d]oxazol-2-yl)-4-(trifluoromethyl)pyridin-2-ol], the inhibition at 10 µM amounted to 40%.

The term IC50 denotes the concentration that inhibits the measured activity by half. As usually defined, the inhibition is the relative decrease from the control value, in per cent.
